From patent US6849637B2, “Triazolo compounds as MMP inhibitors” (Warner-Lambert Company, priority 2001, dated 2005)

Test system: not given
Details: not given

Row | melting point [°C] | Compound
1 | 268 | COc1ccc(CNC(=O)c2ccc3c(c2)c(=O)n(Cc2ccc(CC(=O)O)cc2)c2nncn32)cc1 [Example 25, (4-{7-[(4-Methoxy)-benzylcarbamoyl]-5-oxo-5H-[1,2,4]triazolo[4,3-a]quinazolin-4-ylmethyl}-phenyl)-acetic acid]
2 | 255 | O=C(O)c1ccc(Cn2c(=O)c3cc(C(=O)NCc4ccncc4)ccc3n3cnnc23)cc1 [Example 23, 4-{7-[(Pyridin-4-ylmethyl)-carbamoyl]-5-oxo-5H-[1,2,4]triazolo[4,3-a]quinazol-4-ylmethyl}benzoic acid]
3 | 210 | COC(=O)c1ccc(Cn2c(=O)c3cc(C(=O)NCc4ccc(OC)cc4)ccc3n3cnnc23)cc1 [Example 11, Methyl 4-{7-[(4-methoxybenzyl)-carbamoyl]-5-oxo-5H-[1,2,4]triazolo[4,3-a]quinazol-4-ylmethyl}benzoate]
4 | 235 | COC(=O)c1ccc(Cn2c(=O)c3cc(C(=O)NCc4ccncc4)ccc3n3cnnc23)cc1 [Example 12, Methyl 4-{7-[(pyridin-4-ylmethyl)-carbamoyl]-5-oxo-5H-[1,2,4]triazolo[4,3-a]quinazol-4-ylmethyl}benzoate]
5 | 204 | COC(=O)Cc1ccc(Cn2c(=O)c3cc(C(=O)NCc4ccc(OC)cc4)ccc3n3cnnc23)cc1 [Example 17, Methyl (4-{7-[(4-methoxy)-benzylcarbamoyl]-5-oxo-5H-[1,2,4]triazolo[4,3-a]quinazolin-4-ylmethyl}-phenyl)-acetate]
6 | 248 | COC(=O)c1ccc(Cn2c(=O)c3cc(C(=O)NCc4ccc5c(c4)OCO5)ccc3n3cnnc23)cc1 [Example 10, Methyl 4-{7-[(1,3-benzodioxol-5-ylmethyl)-carbamoyl]-5-oxo-5H-[1,2,4]triazolo[4,3-a]quinazol-4-ylmethyl}benzoate]
7 | 235 | O=C(O)c1ccc(Cn2c(=O)c3cc(C(=O)NCc4ccc5c(c4)OCO5)ccc3n3cnnc23)cc1 [Example 22, 4-{7-[(1,3-Benzodioxol-5-ylmethyl)-carbamoyl]-5-oxo-5H-[1,2,4]triazolo[4,3]quinazol-4-ylmethyl}benzoic acid]
8 | 300 | N#Cc1ccc(Cn2c(=O)c3cc(C(=O)NCc4ccncc4)ccc3n3cnnc23)cc1 [Example 15, N-(pyridin-4-ylmethyl)-4-(4-cyanobenzyl)-5-oxo-4H-[1,2,4]triazolo[4,3-a]quinazol-7-ylcarboxamide]
9 | 303 | O=C(O)c1ccc(Cn2c(=O)c3cc(C(=O)NCc4ccc(F)cc4)ccc3n3cnnc23)cc1 [Example 24, 4-{7-[(4-Fluoro)-benzylcarbamoyl]-5-oxo-5H-[1,2,4]triazolo[4,3-a]quinazol-4-ylmethyl}benzoic acid]
10 | 232 | O=C(O)Cc1ccc(Cn2c(=O)c3cc(C(=O)NCc4ccc5c(c4)OCO5)ccc3n3cnnc23)cc1 [Example 26, (4-{7-[(1,3-Benzodioxol-5-ylmethyl)-carbamoyl]-5-oxo-5H-[1,2,4]triazolo[4,3-a]quinazolin-4-ylmethyl}-phenyl)-acetic acid]
11 | 175 | CN(C)CCOC(=O)c1ccc(Cn2c(=O)c3cc(C(=O)NCc4ccc(F)cc4)ccc3n3cnnc23)cc1 [Example 13, (2-Dimethylamino-ethyl) 4-[7-(4-fluoro-benzylcarbamoyl)-5-oxo-5H-[1,2,4]triazolo[4,3-a]quinazol-4-ylmethyl]benzoate]
12 | 186 | COc1ccc(CNC(=O)c2ccc3c(c2)c(=O)n(CCOc2ccc(Cl)cc2)c2nncn32)cc1 [Example 20, 4-[2-(4-Chloro-phenoxy)-ethyl]-5-oxo-4,5-dihydro-[1,2,4]triazolo[4,3-a]quinazoline-7-carboxylic acid 4-methoxy-benzylamide]
13 | 250 | O=C(NCc1ccncc1)c1ccc2c(c1)c(=O)n(C/C=C/c1ccncc1)c1nncn21 [Example 19, N-(pyridin-4-ylmethyl) 4-[3-(pyridin-4-yl)-2-propen-1-yl]-5-oxo-4H-[1,2,4]triazolo[4,3-a]quinazol-7-ylcarboxamide]

Test system: MMP-1, MMP-2, MMP-3, MMP-9 and MMP-13
Details: prior art compounds, collagenase, gelatinase and stromelysin type MMPs; cited from earlier work

Row | Compound | inhibition of MMP-1, MMP-2, MMP-3, MMP-9 and MMP-13 (non-selective)
14 | CC1(C)SCCN(S(=O)(=O)c2ccc(Oc3ccncc3)cc2)[C@H]1C(=O)NO [AG-3340] | simultaneously inhibit
15 | COc1ccc(S(=O)(=O)N(Cc2cccnc2)[C@@H](C(=O)NO)C(C)C)cc1 [CGS-27.023A] | simultaneously inhibit
